Where two headings read alike, the source gives them in different places.
What was measured:
PDGFRα D842V = PDGFRα D842V (Homo sapiens, UniProt P16234, D842V); assay: PDGFRα D842V biochemical enzymatic activity assay (EZReader 2 mobility shift); details: ATP at APPKM (25 μM), 90 minutes
Text: (§1) PDGFRα and KIT enzymatic activity was monitored using the Perkin Elmer electrophoretic mobility shift technology platform, the EZReader 2.
(§2) Within the linear, steady-state phase of the kinase enzymatic reaction, the mixed pool of phosphorylated (product) and non-phosphorylated (substrate) peptides was passed through the microfluidic system of the PerkinElmer EZ Reader 2, under an applied electric potential difference. The presence of the phosphate group on the product peptide provided a difference in mass and charge between that of the substrate peptide, resulting in a separation of the substrate and product pools in the sample (Perrin et al., Expert Opin Drug Discovery 2010, Jan. 5(1):51-63).
(§3) As the product and substrate peptide mixture passes the lasers within the instrument, these pools are detected (λex=488 nm, λem=568 nm) and resolved as separate peaks. The ratio between these peaks reflects the activity of the compound at that concentration, in that well, under those conditions.
(§4) All test articles were dissolved in 100% DMSO at a stock concentration of 10 mM. A 100×, 10-point, 4-fold serial dilution of all test compounds was created in 100% DMSO, starting at a relevant concentration, usually 1 mM. A volume of 0.130 μL of each concentration was transferred to the relevant well of a 384-well assay plate (Greiner 781 201) using a TTPLabtech Mosquito nano-liter dispenser. Using the Multidrop, the remaining constituents of the reaction were then added to the 0.130 μL of compound as follows:
The reaction was stopped by the addition of 70 μl of Stop buffer (100 mM HEPES pH 7.5, 0.015% Brij 35, 35 mM EDTA and 0.2% of Coating Reagent 3, Caliper Lifesciences). The plate was read on a Caliper EZReader 2.

[1] = Brain penetration in rats, brain to plasma ratios after 24 h IV infusion; format: in vivo, Sprague-Dawley rats; details: for Kp uu at 24 h: Sprague-Dawley, brain / plasma, intravenous, 1 mg/kg/hr; for Kp uu at 24 h / Rat Kp: Table 3B; for Rat Kp: methods as for compound 4
Text: To understand the brain penetration, brain to plasma ratios of the compounds were obtained in Sprague-Dawley (SD) rats. In vivo equilibrium distribution between blood and brain in preclinical species such as rats is a commonly used parameter to evaluate brain penetration. Kp,brain is the ratio of concentrations in brain and blood (Cbrain/Cplasma). The compound's passive diffusion characteristics, its affinity for membrane transporters at the blood-brain barrier (BBB), and the relative drug binding affinity differences between the plasma proteins and brain tissue influence the Kp,brain.
The animals received IV infusion of 1 mg/kg/hr of the compound over 24 hours via jugular vein cannulation. At 24 hours, blood was collected via tail vein bleeding or cardiac puncture (under anesthesia) and centrifuged to obtain plasma samples. Brain tissues were collected and homogenized with phosphate-buffered saline (PBS). The concentrations of the compounds were obtained in the plasma and brain homogenates by LC-MS/MS analysis.

[2] = molecular target: T1, KIT D816V (HMC1.2 cells, KIT V560G and D816V) (Homo sapiens, UniProt P10721, D816V/V560G); assay: HMC1.2 autophosphorylation assay (phospho-Y719 KIT AlphaLISA); format: cell-based; details: 90 minutes, KIT autophosphorylation at tyrosine 719, read-out: KIT (P-KIT HMC1.2 (nM))
T1 construct: endogenous in cells; host or cells: HMC1.2 (mast cell leukemia cell line)
T1 sequence (P10721 26-976 V560G/D816V): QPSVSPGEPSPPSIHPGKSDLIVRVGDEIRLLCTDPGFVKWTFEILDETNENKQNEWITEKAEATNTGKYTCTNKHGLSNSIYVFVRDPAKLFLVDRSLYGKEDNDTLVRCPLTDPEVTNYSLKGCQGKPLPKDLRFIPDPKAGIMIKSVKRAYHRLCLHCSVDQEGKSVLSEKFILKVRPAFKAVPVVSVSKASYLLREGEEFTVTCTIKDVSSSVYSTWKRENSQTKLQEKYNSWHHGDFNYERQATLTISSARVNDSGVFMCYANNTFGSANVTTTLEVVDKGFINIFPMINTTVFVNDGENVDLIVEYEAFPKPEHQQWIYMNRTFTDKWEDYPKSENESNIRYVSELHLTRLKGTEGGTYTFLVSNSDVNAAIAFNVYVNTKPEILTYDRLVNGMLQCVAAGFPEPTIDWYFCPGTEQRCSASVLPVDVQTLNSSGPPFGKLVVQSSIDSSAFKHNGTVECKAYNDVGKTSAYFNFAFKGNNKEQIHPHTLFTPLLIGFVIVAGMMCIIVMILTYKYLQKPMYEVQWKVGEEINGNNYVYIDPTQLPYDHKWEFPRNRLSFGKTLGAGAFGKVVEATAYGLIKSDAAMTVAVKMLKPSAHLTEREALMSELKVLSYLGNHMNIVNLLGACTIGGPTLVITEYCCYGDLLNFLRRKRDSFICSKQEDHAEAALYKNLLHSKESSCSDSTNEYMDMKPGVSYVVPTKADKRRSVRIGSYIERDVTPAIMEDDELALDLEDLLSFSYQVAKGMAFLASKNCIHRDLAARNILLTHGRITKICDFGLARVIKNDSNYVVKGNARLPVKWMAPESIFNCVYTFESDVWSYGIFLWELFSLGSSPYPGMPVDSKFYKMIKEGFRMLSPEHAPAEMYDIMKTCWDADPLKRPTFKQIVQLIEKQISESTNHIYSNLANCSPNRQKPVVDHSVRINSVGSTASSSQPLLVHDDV
Description: 10,000 HMC1.2 cells were incubated in 22 μL culture media (phenol-red free IMDM, no serum) in each well of a 384-well plate and serum starved overnight in a tissue culture incubator (5% CO2, 37° C.). […] 10 μL of […] streptavidin donor beads (Perkin Elmer) were added to each well, blocked from light with solid black adhesive and shaken at 300 rpm at room temperature for 2 hours. Fluorescence signal was obtained on Envision (Perkin Elmer) by AlphaScreen 384 well HTS protocol.

KIT D816V = KIT D816V (Homo sapiens, UniProt P10721, D816V); assay: KIT D816V biochemical enzymatic activity assay (EZReader 2 mobility shift); details: ATP at APPKM (20 μM), 60 minutes
Chain of KIT D816V (P10721 26-976 D816V): as the sequence (P10721 26-976 V560G/D816V) above, with G535V counted along it
Text: as §1, §2, §3, §4
The reaction was stopped by the addition of 70 μl of Stop buffer (100 mM HEPES pH 7.5, Brij 35, 35 mM EDTA and 0.2% of Coating Reagent 3, Caliper Lifesciences). The plate was read on a Caliper EZReader 2.

wt KIT kinase = molecular target: T2, wt KIT kinase (Homo sapiens, UniProt P10721); assay: Wild-type KIT Kd determination (phage-tagged kinase competition binding, qPCR)
T2 construct: made in house; host or cells: E. coli derived from BL21, infected with T7 phage
T2 sequence (P10721 26-976): as the sequence (P10721 26-976 V560G/D816V) above, with G535V, V791D counted along it
Description: Kd Determinations. For most assays, including wt KIT kinase, kinase-tagged T7 phage strains were prepared in an E. coli host derived from the BL21 strain. E. coli were grown to log-phase and infected with T7 phage and incubated with shaking at 32° C. until lysis. […] The liganded beads were blocked with excess biotin and washed with blocking buffer (SeaBlock (Pierce), 1% BSA, 0.05% Tween 20, 1 mM DTT) to remove unbound ligand and to reduce non-specific binding. […] Test compounds were prepared as 111×stocks in 100% DMSO. Kds were determined using an 11-point 3-fold compound dilution series with three DMSO control points. […] The compounds were then diluted directly into the assays such that the final concentration of DMSO was 0.9%. All reactions were performed in polypropylene 384-well plate. Each was a final volume of 0.02 ml. […] The kinase concentration in the eluates was measured by qPCR.
Binding Constants (Kds). Binding constants (Kds) were calculated with a standard dose-response curve using the Hill equation: Response=Background+Signal−Background 1+(KdHill Slope/DoseHill Slope). The Hill Slope was set to −1. Curves were fitted using a non-linear least square fit with the Levenberg-Marquardt algorithm.

[3] = Pharmacokinetics after single intravenous and oral administration in rats; format: in vivo, Sprague-Dawley rats; details: iv 1 mg/kg, Clu=Cl/fu,plasma
Description: Assessment of pharmacokinetics following single intravenous and oral administration in rats: 3 Sprague-Dawley rats were employed for each compound for each route of administration (iv or oral). For iv administration, 1 mg/kg (dose volume=5 mL/kg) of each compound was administered by intravenous route via […] injection; whereas for oral route, 2.5 mg/kg (dose volume=5 mL/kg) was administered via oral gavage. Blood samples were obtained via tail vein at predose, 0.083, 0.25, 0.5, 1, 2, 4 and 8 hr. In addition, blood samples were also obtained at 24 hr via cardiac puncture (under anesthesia with Isoflurane) for terminal bleeding. All the blood samples were analyzed for the drug concentrations via LC/MS-MS. Pharmacokinetic parameters such as Cmax, Tmax, AUClast, AUCinf, MRTlast, MRTinf, T1/2, Vss and CL were obtained by non-compartmental analysis (NCA).

[4] = rat, fu,brain from brain slice, read-out: Rat Kp, uu Brain slice

Chain of PDGFRα D842V (P16234 24-1089 D842V): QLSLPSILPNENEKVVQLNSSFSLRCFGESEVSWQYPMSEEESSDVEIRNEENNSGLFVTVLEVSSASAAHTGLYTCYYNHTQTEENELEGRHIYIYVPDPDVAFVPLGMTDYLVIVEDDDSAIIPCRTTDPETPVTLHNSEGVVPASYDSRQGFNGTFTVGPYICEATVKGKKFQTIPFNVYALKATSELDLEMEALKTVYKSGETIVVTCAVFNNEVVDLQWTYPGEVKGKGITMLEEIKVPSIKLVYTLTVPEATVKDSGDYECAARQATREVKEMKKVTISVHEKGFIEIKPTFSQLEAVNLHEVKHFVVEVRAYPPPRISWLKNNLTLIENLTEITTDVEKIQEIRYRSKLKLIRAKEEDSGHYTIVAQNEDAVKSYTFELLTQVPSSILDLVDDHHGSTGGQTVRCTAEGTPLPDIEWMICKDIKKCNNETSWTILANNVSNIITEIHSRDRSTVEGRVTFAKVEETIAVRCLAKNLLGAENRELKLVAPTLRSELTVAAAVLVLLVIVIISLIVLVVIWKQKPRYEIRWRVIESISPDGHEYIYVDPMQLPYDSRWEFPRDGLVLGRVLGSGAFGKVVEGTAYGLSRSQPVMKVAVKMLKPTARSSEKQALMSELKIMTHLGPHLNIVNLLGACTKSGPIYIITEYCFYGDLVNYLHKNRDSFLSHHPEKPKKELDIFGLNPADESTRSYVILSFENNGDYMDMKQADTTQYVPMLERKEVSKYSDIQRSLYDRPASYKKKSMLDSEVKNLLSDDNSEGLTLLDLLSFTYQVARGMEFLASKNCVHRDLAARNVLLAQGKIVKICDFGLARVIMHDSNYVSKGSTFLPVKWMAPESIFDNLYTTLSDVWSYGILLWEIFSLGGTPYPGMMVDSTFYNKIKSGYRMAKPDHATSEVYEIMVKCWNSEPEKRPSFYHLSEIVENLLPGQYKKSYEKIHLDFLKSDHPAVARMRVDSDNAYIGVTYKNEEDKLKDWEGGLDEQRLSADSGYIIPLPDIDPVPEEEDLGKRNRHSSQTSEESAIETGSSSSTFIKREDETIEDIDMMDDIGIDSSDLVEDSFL

C[C@@H](CO)n1cc(-c2cc3c(N4CCN(c5ncc([C@@](C)(N)c6ccc(F)cc6)cn5)CC4)ncnn3c2)cn1 [Compound 6, (S)-2-(4-(4-(4-(5-((S)-1-amino-1-(4-fluorophenyl)ethyl)pyrimidin-2-yl)piperazin-1-yl)pyrrolo[2,1-f][1,2,4]triazin-6-yl)-1H-pyrazol-1-yl)propan-1-ol]
IC50 (PDGFRα D842V): ≤ 0.3 nM

C[C@@H](O)Cn1cc(-c2cc3c(N4CCN(c5ncc([C@@](C)(N)c6ccc(F)cc6)cn5)CC4)ncnn3c2)cn1 [Compound 3]
IC50 (PDGFRα D842V): ≤ 0.3 nM

C[C@H](O)Cn1cc(-c2cc3c(N4CCN(c5ncc([C@@](C)(N)c6ccc(F)cc6)cn5)CC4)ncnn3c2)cn1 [Compound 7]
IC50 (PDGFRα D842V): ≤ 0.3 nM

CC(C)(CO)n1cc(-c2cc3c(N4CCN(c5ncc([C@@](C)(N)c6ccc(F)cc6)cn5)CC4)ncnn3c2)cn1 [Compound 2, (S)-2-(4-(4-(4-(5-(1-amino-1-(4-fluorophenyl)ethyl)pyrimidin-2-yl)piperazin-1-yl)pyrrolo[2,1-f][1,2,4]triazin-6-yl)-1H-pyrazol-1-yl)-2-methylpropan-1-ol]
IC50 (PDGFRα D842V): ≤ 0.3 nM

C[C@](N)(c1ccc(F)cc1)c1cnc(N2CCN(c3ncnn4cc(-c5cnn([C@H]6CC[C@@H]6O)c5)cc34)CC2)nc1 (single isomer, unassigned) [Compound 10]
IC50 (PDGFRα D842V): ≤ 0.3 nM
Kp uu at 24 h [1, 4]: 0.07
Rat Kp [1]: 0.18
IC50 [2]: < 4.5 nM
IC50 (KIT D816V): 0.31 to 1 nM
Kd (wt KIT kinase): < 10 nM

C[C@](N)(c1ccc(F)cc1)c1cnc(N2CCN(c3ncnn4cc(-c5cnn(CCO)c5)cc34)CC2)nc1 [Compound 4, (S)-2-(4-(4-(4-(5-(1-Amino-1-(4-fluorophenyl)ethyl)pyrimidin-2-yl)piperazin-1-yl)pyrrolo[2,1-f][1,2,4]triazin-6-yl)-1H-pyrazol-1-yl)ethanol]
IC50 (PDGFRα D842V): ≤ 0.3 nM
Rat IV PK (Clu) (mL/min/kg), unbound clearance [3]: (582) mL/min/kg

C[C@](N)(c1ccc(F)cc1)c1cnc(N2CCN(c3ncnn4cc(-c5cnn(C6(CO)CC6)c5)cc34)CC2)nc1 [Compound 9, (S)-(1-(4-(4-(4-(5-(1-Amino-1-(4-fluorophenyl)ethyl)pyrimidin-2-yl)piperazin-1-yl)pyrrolo[2,1-f][1,2,4]triazin-6-yl)-1H-pyrazol-1-yl)cyclopropyl)methanol]
IC50 (PDGFRα D842V): ≤ 0.3 nM

C[C@](N)(c1ccc(F)cc1)c1cnc(N2CCN(c3ncnn4cc(-c5cnn(CC6(O)CC6)c5)cc34)CC2)nc1 [Compound 8, (S)-1-((4-(4-(4-(5-(1-Amino-1-(4-fluorophenyl)ethyl)pyrimidin-2-yl)piperazin-1-yl)pyrrolo[2,1-f][1,2,4]triazin-6-yl)-1H-pyrazol-1-yl)methyl)cyclopropan-1-ol]
IC50 (PDGFRα D842V): ≤ 0.3 nM

C[C@H](CO)n1cc(-c2cc3c(N4CCN(c5ncc([C@@](C)(N)c6ccc(F)cc6)cn5)CC4)ncnn3c2)cn1 [Compound 5, (R)-2-(4-(4-(4-(5-((S)-1-Amino-1-(4-fluorophenyl)ethyl)pyrimidin-2-yl)piperazin-1-yl)pyrrolo[2,1-f][1,2,4]triazin-6-yl)-1H-pyrazol-1-yl)propan-1-ol]
IC50 (PDGFRα D842V): ≤ 0.3 nM

CC(C)(O)Cn1cc(-c2cc3c(N4CCN(c5ncc([C@@](C)(N)c6ccc(F)cc6)cn5)CC4)ncnn3c2)cn1 [Compound 1, (S)-1-(4-(4-(4-(5-(1-Amino-1-(4-fluorophenyl)ethyl)pyrimidin-2-yl)piperazin-1-yl)pyrrolo[2,1-f][1,2,4]triazin-6-yl)-1H-pyrazol-1-yl)-2-methylpropan-2-ol]
IC50 (PDGFRα D842V): ≤ 0.3 nM

C[C@](N)(c1ccc(F)cc1)c1cnc(N2CCN(c3ncnn4cc(-c5cnn([C@@H]6CC[C@H]6O)c5)cc34)CC2)nc1 (single isomer, unassigned) [Compound 11]
IC50 (PDGFRα D842V): ≤ 0.3 nM
Kp uu at 24 h ([1]; rat, fu,brain from brain homogenate, read-out: Rat Kp, uu Homogenate): 0.06
Kp uu at 24 h [1, 4]: 0.03
Rat Kp [1]: 0.13
IC50 [2]: < 4.5 nM
IC50 (KIT D816V): ≤ 0.3 nM
Kd (wt KIT kinase): < 10 nM

CCn1cc(-c2cc3c(N4CCN(c5ncc([C@@](C)(N)c6ccc(F)cc6)cn5)CC4)ncnn3c2)cn1 [Comparator A, reference compound]
IC50 (PDGFRα D842V): ≤ 0.3 nM
Unbound concentration, Brain ([1]; rat, total mean brain concentration x fu,brain (homogenate)): 1.7
Unbound concentration, Plasma ([1]; rat, total mean plasma concentration x fu,p): 2.02
IC50 (KIT D816V): ≤ 0.3 nM
